Counter-ions that a name gives are not always drawn.
What follows are molecules tested on Prostate carcinoma cell line PC-3 (assay: In vitro prostate carcinoma cell proliferation inhibition assay (MTT)). Conditions: Homo sapiens, 72 h, read-out: IC50 PC-3.
Assay type: cell-based, human
Experimental: In vitro prostate carcinoma cell proliferation inhibition assay
Prostate carcinoma cell line PC-3 cells were suspended in Ham's F-12K medium (Flow Laboratories or Dainippon Pharmaceutical Co,. Ltd) supplemented with 10% fetal calf serum, and seeded in a 96-well microtiter plate (5000 cells/50 or 75 μl/well). The plate was then incubated in a 5% CO2 incubator at 37° C. On the following day, a 3-fold dilution series with the medium with serum of the test compound in N,N-dimethylformamide (DMF) (50 or 25 μl/well) were added (final volume […]) and the plate was incubated for another 3 days. Following addition of a thiazolyl-tetrazolium (MTT) solution, absorbance based on the viable cell number was determined "Tada et al., Journal of Immunological Methods, 93, 157 (1986)". With the estimated cell number in the control group to which the test compound solution was not added being taken as 100%, the percentage of the estimated cell number in each test group was determined and the concentration (IC50 value) of the test compound which was required for 50% inhibition of the estimated viable cell number in the control group was calculated.

Row | SMILES | IC50 [nM]
1 | Cc1cccc2nc(SCc3ccc(C(=O)c4ccc(OC(=O)N(C)C)cc4)cc3)n(C)c(=O)c12 [Example 228, 3,5-Dimethyl-2-[4-[4-(N,N-dimethylcarbamoyloxy)-benzoyl]benzylthio]-4(3H)-quinazolinone] | 7

Same assay, conditions: Homo sapiens, 72 h; PC-3, 3 days incubation, MTT; read-out: IC50 PC-3

Row | SMILES | IC50 [nM]
2 | Cc1cn(C)c2nc(SCc3ccc(C(=O)c4ccc(F)cc4)cc3)n(C)c(=O)c12 [57(A), 2-[4-(4-Fluorobenzoyl)benzyl]thio-3,5,7-trimethyl-7H-pyrrolo[2,3-d]pyrimidin-4(3H)-one] | 5
3 | Cc1cn(C)c2nc(SC(C)c3ccc(C(=O)c4ccc(F)cc4)cc3)n(C)c(=O)c12 (stereo not drawn) [57(B), 2-[1-[4-(4-Fluorobenzoyl)phenyl]ethyl]thio-3,5,7-trimethyl-7H-pyrrolo[2,3-d]pyrimidin-4(3H)-one] | 9
4 | CC(C)(C)n1ncc2c(cnn2Cc2ccc(C(=O)c3ccc(Cl)cc3)cc2)c1=O [62(A), 5-Tert-butyl-1-[4-(4-chlorobenzoyl)benzyl]-1H-pyrazolo[3,4-d]pyridazin-4(5H)-one] | < 1.52
5 | Cc1nn(Cc2ccc(C(=O)c3ccc(Cl)cc3)cc2)c2cnn(C)c(=O)c12 [84(A), 1-[4-(4-Chlorobenzoyl)benzyl]-3,5-dimethyl-1H-pyrazolo [3,4-d]pyridazin-4(5H)-one] | 2
6 | CCn1c(SC)nc2c(cnn2Cc2ccc(C(=O)c3ccc(Cl)cc3)cc2)c1=O [129(A)] | < 1.52
7 | CCn1c(SC)nc2c(cnn2Cc2ccc(C(=O)c3ccc(OC)cc3)cc2)c1=O [132(A), 5-Ethyl-1-[4-(4-methoxybenzoyl)benzyl]-6-methylthio-1,5-dihydro-4H-pyrazolo[3,4-d]pyrimidin-4-one] | 2
8 | Cn1ncc2c(c(Cl)c(Cl)n2Cc2ccc(C(=O)c3ccc(Cl)cc3)cc2)c1=O [Example 37, 1-[4-(4-Chlorobenzoyl)benzyl]-2,3-dichloro-5-methyl-1H-pyrrolo[2,3-d]pyridazin-4(5H)-one] | 6
9 | Cc1c[nH]c2nc(SCc3ccc(C(=O)c4ccc(Cl)cc4)cc3)[nH]c(=O)c12 [Example 50, 2-[4-(4-Chlorobenzoyl)benzyl]thio-5-methyl-7H-pyrrolo[2,3-d]pyrimidin-4(3H)-one] | 9
10 | Cc1cn(C)c2nc(SCc3ccc(C(=O)c4ccc(Cl)cc4)cc3)n(C)c(=O)c12 [Example 55, 2-[4-(4-Chlorobenzoyl)benzyl]thio-3,5,7-trimethyl-7H-pyrrolo[2,3-d]pyrimidin-4(3H)-one] | < 1.52
11 | Cn1ncc2c(c(Cl)c(Cl)n2Cc2ccc(C(=O)c3ccc(F)cc3)cc2)c1=O [Example 66, 1-[4-(4-Fluorobenzoyl)benzyl]-2,3-dichloro-5-methyl-1H-pyrrolo [2,3-d]pyridazin-4(5H)-one] | 8
12 | Cc1cn(Cc2ccc(C(=O)c3ccc(Cl)cc3)cc2)c2ncn(C)c(=O)c12 [Example 94, 7-[4-(4-Chlorobenzoyl)benzyl]-3,5-dimethyl-7H-pyrrolo [2,3-d]pyrimidin-4(3H)-one] | 2
13 | CCn1cnc2c(c(C)cn2Cc2ccc(C(=O)c3ccc(Cl)cc3)cc2)c1=O [Example 96, 7-[4-(4-Chlorobenzoyl)benzyl]-3-ethyl-5-methyl-7H-pyrrolo [2,3-d]pyrimidin-4(3H)-one] | < 1.52
14 | Cc1c(OCc2ccc(C(=O)c3ccc(C(F)(F)F)cc3)cc2)nc2ccccn2c1=O [Example 124, 3-Methyl-2-[4-(4-trifluoromethylbenzoyl)benzyloxy]pyrido[1,2-a]pyrimidin-4-one] | 8
15 | Cc1cccc2nc(SCc3ccc(C(=O)c4ccc(CSc5nnnn5CCN(C)C)cc4)cc3)n(C)c(=O)c12 [Example 138, 3,5-Dimethyl-2-[4-[4-[[1-(2-dimethylaminoethyl)-1H-tetrazol-5-yl]thiomethyl]benzoyl]benzylthio]-4(3H)-quinazolinone] | < 1.52
16 | Cc1cccc2nc(SCc3ccc(C(=O)c4ccc(CN5CCN(C)CC5)cc4)cc3)n(C)c(=O)c12 [Example 144, 3,5-Dimethyl-2-[4-[4-(4-methylpiperazinylmethyl)benzoyl]benzylthio]-4(3H)-quinazolinone] | < 1.52
17 | Cc1csc2nc(SCc3ccc(C(=O)c4ccc(OCCN5CCOCC5)cc4)cc3)n(C)c(=O)c12 [Example 148, 3,5-Dimethyl-2-[4-[4-(2-morpholinoethoxy)benzoyl]-benzylthio]thieno[2,3-d]pyrimidin-4(3H)-one] | < 1.52
18 | Cn1c(SCc2ccc(C(=O)c3ccc(N4CCC(N5CCCCC5)CC4)nc3)cc2)nc2ccsc2c1=O [Example 158, 3-Methyl-2-[4-[6-(4-piperidinopiperidinyl)nicotinoyl]benzylthio]thieno[3,2-d]pyrimidin-4(3H)-one hydrochloride] | 4.5
19 | CCc1c(C)nc2n(Cc3ccc(C(=O)c4ccc(Cl)cc4)cc3)ccn2c1=O [Example 169, 1-[4-(4-Chlorobenzoyl)benzyl]-6-ethyl-7-methylimidazo[1,2-a]pyrimidin-5(1H)-one] | < 1.52
20 | Cc1nc2n(Cc3ccc(C(=O)c4ccc(Cl)cc4)cc3)ccn2c(=O)c1C(C)C [Example 181, 1-[4-(4-Chlorobenzoyl)benzyl]-6-isopropyl-7-methylimidazo[1,2-a]pyrimidin-5(1H)-one] | 3
21 | Cc1cccc2nc(SCc3ccc(C(=O)c4ccc(C(=O)N5CCN(C)CC5)cc4)cc3)n(C)c(=O)c12 [Example 184, 3,5-Dimethyl-2-[4-[4-(4-methylpiperazinocarbonyl)benzoyl]benzyl]thio-4(3H)-quinazolinone] | < 1.52
22 | Cc1cccc2nc(SCc3ccc(C(=O)c4ccc(C(=O)N5CCC(N6CCCCC6)CC5)cc4)cc3)n(C)c(=O)c12 [Example 193, 3,5-Dimethyl-2-[4-[4-(4-piperidinopiperidinocarbonyl)benzoyl]benzyl]thio-4(3H)-quinazolinone] | 2
23 | CCc1cccc2nc(SCc3ccc(C(=O)c4ccc(Cl)cc4)cc3)n(C)c(=O)c12 [Example 214, 2-[4-(4-Chlorobenzoyl)benzyl]thio-5-ethyl-3-methyl-4(3H)-quinazolinone] | 5.2
24 | Cc1cccc2nc(SCc3ccc(C(=O)c4ccc(OCC(=O)c5ccccc5)cc4)cc3)n(C)c(=O)c12 [Example 234, 3,5-Dimethyl-2-[4-(4-phenacyloxybenzoyl)benzylthio]-4-(3H)-quinazolinone] | 7
25 | CCn1c(SC)nc2c(ccn2Cc2ccc(C(=O)c3ccc(Cl)cc3)cc2)c1=O [Example 252, 7-[4-(4-Chlorobenzoyl)benzyl]-3-ethyl-2-methylthio-7H-pyrrolo[2,3-d]pyrimidin-4-one] | < 1.52
26 | O=C(c1ccc(Cn2ccn3c(=O)c4c(nc23)CCCC4)cc1)c1ccc(C(F)(F)F)cc1 [Example 329, 1-[4-(4-Trifluorobenzoyl)benzyl]-6,7,8,9-tetrahydroimidazo[2,1-b]quinazolin-5(1H)-one] | 2.6
27 | Cc1c(SCc2ccc(C(=O)c3ccc(C(F)(F)F)cc3)cc2)nc2n(c1=O)CCCS2 [Example 365, 3,4-Dihydro-7-methyl-8-(4-(4-trifluoromethylbenzoyl)benzylthio)-2H,6H-pyrimido[2,1-b][1,4]thiazin-6-one] | 6.2
28 | Cc1c(OCc2ccc(C(=O)c3ccc(C(F)(F)F)cc3)cc2)nc2n(c1=O)CCCC2 [Example 385, 3-Methyl-2-[4-(4-trifluoromethylbenzoyl)benzyloxy]-6,7,8,9-tetrahydro-4H-pyrido[1,2-a]pyrimidin-4-one] | 4.6
29 | Cc1ccc(C(=O)c2ccc(COc3nc4n(c(=O)c3C)CCCS4)cc2)cc1 [Example 406, 7-Methyl-8-[4-(4-methylbenzoyl)benzyloxy]-3,4-dihydro-2H,6H-pyrimido[2,1-b][1,3]thiazin-6-one] | 0.94

Same assay, conditions: PC-3, 3 days incubation, MTT; read-out: IC50 PC-3

Row | SMILES | IC50 [nM]
30 | CCOP(=O)(OCC)Oc1ccc(C(=O)c2ccc(CSc3nc4cccc(C)c4c(=O)n3C)cc2)cc1 [Example 217, 2-[4-(4-Diethylphosphonooxybenzoyl)benzylthio]-3,5-dimethyl-4(3H)-quinazolinone] | < 1.52

What follows are molecules tested on human prostatic carcinoma cells PC-3 (assay: Inhibitory action against the growth of subcutaneously implanted tumor (Test Example 4, oral dosing)). Conditions: 25 mg/kg p.o., once a day for 3 weeks, 52nd day after transplantation; mean ± SD.
Assay type: in vivo, human; BALB/c nu/nu mouse
Experimental: Inhibitory action of the test compound against the growth of subcutaneously implanted tumor
The human prostatic carcinoma cells PC-3, which are maintained in vitro, were harvested using 0.05% trypsin, washed with Ham's F12K medium containing 10% serum, and then suspended in PBS (phosphate-buffered saline) at a concentration of 3×10^7 cells/ml. The aliquot of 100 μl was transplanted into the right central flank region of a 7-week old, male BALB/c nu/nu mouse using a syringe with a 25 gauge needle. After the size of the resulting tumor mass was measured on the 31st day after the transplanation, the mice were divided into groups of five animals (the average tumor volume of each group was between 273 and 293 mm^3), and then the treatment with test compound was commenced. Tumor volume was calculated according to the formulation: tumor volume=0.5×(the longest diameter)×(the shortest diameter)^2 after two-dimensional measurement of the tumor mass by a caliper. The test compound was suspended in 0.5% methylcellulose/physiological saline, and orally administered at a volume of 10 μl/g body weight. Thereafter the test compound was administered once a day for 3 weeks. The inhibitory action was assessed on the 52nd day after the transplanation, the first day after the last administration, by the ratio of tumor volume gain of treated groups to that of the control group (T/C %). The dosage of the test compound is expressed as mg/kg/shot.

Row | SMILES | Tumor volume gain [mm^3]
31 | Cc1c(OCc2ccc(C(=O)c3ccc(C(F)(F)F)cc3)cc2)nc2n(c1=O)CCCC2 [Example 385, 3-Methyl-2-[4-(4-trifluoromethylbenzoyl)benzyloxy]-6,7,8,9-tetrahydro-4H-pyrido[1,2-a]pyrimidin-4-one] | 893 ± 247

Same assay, conditions: 25 mg/kg p.o., once a day for 3 weeks, 52nd day; ratio of tumor volume gain treated/control

Row | SMILES | T/C [%]
32 | Cc1c(OCc2ccc(C(=O)c3ccc(C(F)(F)F)cc3)cc2)nc2n(c1=O)CCCC2 [Example 385, 3-Methyl-2-[4-(4-trifluoromethylbenzoyl)benzyloxy]-6,7,8,9-tetrahydro-4H-pyrido[1,2-a]pyrimidin-4-one] | 63

Same assay, conditions: 50 mg/kg p.o., once a day for 3 weeks, 52nd day after transplantation; mean ± SD

Row | SMILES | Tumor volume gain [mm^3]
33 | Cc1c(OCc2ccc(C(=O)c3ccc(C(F)(F)F)cc3)cc2)nc2n(c1=O)CCCC2 [Example 385, 3-Methyl-2-[4-(4-trifluoromethylbenzoyl)benzyloxy]-6,7,8,9-tetrahydro-4H-pyrido[1,2-a]pyrimidin-4-one] | 732 ± 156

Same assay, conditions: 50 mg/kg p.o., once a day for 3 weeks, 52nd day; ratio of tumor volume gain treated/control

Row | SMILES | T/C [%]
34 | Cc1c(OCc2ccc(C(=O)c3ccc(C(F)(F)F)cc3)cc2)nc2n(c1=O)CCCC2 [Example 385, 3-Methyl-2-[4-(4-trifluoromethylbenzoyl)benzyloxy]-6,7,8,9-tetrahydro-4H-pyrido[1,2-a]pyrimidin-4-one] | 52

Same assay, conditions: 75 mg/kg p.o., once a day for 3 weeks, 52nd day after transplantation; mean ± SD

Row | SMILES | Tumor volume gain [mm^3]
35 | Cc1c(OCc2ccc(C(=O)c3ccc(C(F)(F)F)cc3)cc2)nc2n(c1=O)CCCC2 [Example 385, 3-Methyl-2-[4-(4-trifluoromethylbenzoyl)benzyloxy]-6,7,8,9-tetrahydro-4H-pyrido[1,2-a]pyrimidin-4-one] | 596 ± 176

Same assay, conditions: 75 mg/kg p.o., once a day for 3 weeks, 52nd day; ratio of tumor volume gain treated/control

Row | SMILES | T/C [%]
36 | Cc1c(OCc2ccc(C(=O)c3ccc(C(F)(F)F)cc3)cc2)nc2n(c1=O)CCCC2 [Example 385, 3-Methyl-2-[4-(4-trifluoromethylbenzoyl)benzyloxy]-6,7,8,9-tetrahydro-4H-pyrido[1,2-a]pyrimidin-4-one] | 42

From US5753664A, “Heterocyclic compounds, their production and use” (Takeda Chemical Industries, Ltd., priority 1995, dated 1998)
